Assay results from US6518268B1, “Telomerase inhibitors and methods of their use” (Geron Corporation, priority 1999, dated 2003).

How the values were obtained:
[1] = molecular target: T1, telomerase in human renal carcinoma cell line ACHN (Homo sapiens, UniProt O14746); test: Telomerase activity in extract of agent-treated ACHN cells (TRAP assay); format: cell-based; details: contact 3 days
T1 construct: human renal carcinoma cell line ACHN for 3 days, and then a cell extract was prepared; endogenous in cells; host or cells: ACHN human renal carcinoma cells; CHAPS extract after 3 days of treatment
Protocol: That is, a cell extract was prepared using a buffer solution containing 0.5% CHAPS. Using the extract, TRAP (Telomeric Repeat Amplification Protocol) assay was carried out in vitro (TRAPEZE™ ELISA Telomerase Detection Kit, manufactured by Intergen). The ratio (%) of the enzyme activity in the extract from agent-treated cells to the enzyme activity in the extract from agent-untreated cells was calculated.

[2] = molecular target: T2, partially purified telomerase from a nuclear extract of HEK293 cells (Homo sapiens, UniProt O14746); test: In vitro telomerase inhibition, membrane hybridization method (U.S. Pat. No. 5,760,062); format: biochemical; details: for IC50: partially purified telomerase from nuclear extract of HEK293 cells; for residual activity of in vitro telomerase activity (in parenthesis): in the presence of the compound at a concentration of 10 μm
T2 construct: partially purified telomerase from a nuclear extract of HEK293 cells; endogenous in cells; host or cells: HEK293 cells, nuclear extract, partially purified
Protocol: Alternatively, telomerase inhibitory activity of the compounds was measured in accordance with a known method (U.S. Pat. No. 5,760,062). That is, a dimethyl sulfoxide (DMSO) solution of each agent was mixed with partially purified telomerase from a nuclear extract of HEK293 cells and incubated in the presence of an oligodeoxynucleotide to be used as the substrate and deoxynucleotide triphosphate. The obtained reacted product (DNA having a telomere sequence) was adsorbed on a membrane, and hybridization was carried out using a labeled oligonucleotide probe having a sequence complementary to the telomere sequence. The inhibition ratio was calculated based on the ratio of the signal of label on the membrane in the presence of the agent to the signal of label in the absence of the agent (control). Also, concentration of each agent which inhibits 50% of the enzyme activity based on the control was used as IC50.

[3] = concentration 10 μM, read-out: Residual Enzyme Activity (%)
[4] = concentration 30 μM, read-out: Residual Enzyme Activity (%)

T2 sequence (O14746 whole entry): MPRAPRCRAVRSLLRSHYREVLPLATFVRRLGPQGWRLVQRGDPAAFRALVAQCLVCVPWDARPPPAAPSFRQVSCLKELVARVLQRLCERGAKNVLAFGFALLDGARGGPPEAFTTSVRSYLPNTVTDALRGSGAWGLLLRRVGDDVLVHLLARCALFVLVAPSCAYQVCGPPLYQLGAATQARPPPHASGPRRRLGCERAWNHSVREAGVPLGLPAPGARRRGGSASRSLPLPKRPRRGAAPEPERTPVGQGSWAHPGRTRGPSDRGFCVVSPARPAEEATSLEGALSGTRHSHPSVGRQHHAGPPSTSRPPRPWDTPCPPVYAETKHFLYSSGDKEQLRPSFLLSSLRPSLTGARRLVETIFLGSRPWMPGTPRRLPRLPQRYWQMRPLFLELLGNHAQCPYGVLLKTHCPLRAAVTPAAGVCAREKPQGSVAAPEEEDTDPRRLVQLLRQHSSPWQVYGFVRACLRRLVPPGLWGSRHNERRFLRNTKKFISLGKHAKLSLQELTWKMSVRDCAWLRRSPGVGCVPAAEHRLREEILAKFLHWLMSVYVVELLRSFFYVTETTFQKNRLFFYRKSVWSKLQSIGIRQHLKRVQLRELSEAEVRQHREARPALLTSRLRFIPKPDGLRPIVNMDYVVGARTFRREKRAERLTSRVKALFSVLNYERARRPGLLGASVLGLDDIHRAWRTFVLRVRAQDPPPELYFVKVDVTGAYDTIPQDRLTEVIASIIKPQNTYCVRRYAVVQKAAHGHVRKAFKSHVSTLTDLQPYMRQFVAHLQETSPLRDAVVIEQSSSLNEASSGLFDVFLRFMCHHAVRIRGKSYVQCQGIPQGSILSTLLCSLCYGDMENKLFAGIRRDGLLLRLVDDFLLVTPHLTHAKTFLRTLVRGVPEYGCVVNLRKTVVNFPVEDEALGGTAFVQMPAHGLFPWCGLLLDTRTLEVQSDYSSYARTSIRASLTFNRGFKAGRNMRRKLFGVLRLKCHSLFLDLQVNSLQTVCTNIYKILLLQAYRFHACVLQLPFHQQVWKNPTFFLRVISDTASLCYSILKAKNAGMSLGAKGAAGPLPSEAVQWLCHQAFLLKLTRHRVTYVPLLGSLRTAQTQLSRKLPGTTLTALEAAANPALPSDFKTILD
T2 sequence (O60832 whole entry partner): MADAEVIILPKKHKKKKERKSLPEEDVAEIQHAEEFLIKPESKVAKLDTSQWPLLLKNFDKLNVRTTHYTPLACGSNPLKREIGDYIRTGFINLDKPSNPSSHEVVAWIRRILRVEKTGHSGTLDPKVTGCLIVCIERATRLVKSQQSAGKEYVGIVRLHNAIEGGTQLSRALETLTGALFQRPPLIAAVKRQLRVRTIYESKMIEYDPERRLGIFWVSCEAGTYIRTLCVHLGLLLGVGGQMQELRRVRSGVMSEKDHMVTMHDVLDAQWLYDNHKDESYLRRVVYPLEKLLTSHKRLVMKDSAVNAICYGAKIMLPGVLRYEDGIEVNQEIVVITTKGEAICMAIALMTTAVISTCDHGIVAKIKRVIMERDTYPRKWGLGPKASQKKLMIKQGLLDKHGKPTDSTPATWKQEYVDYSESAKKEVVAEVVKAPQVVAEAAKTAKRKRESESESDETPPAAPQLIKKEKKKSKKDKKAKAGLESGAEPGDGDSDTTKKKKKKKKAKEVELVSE
T2 sequence (Q9NPE3 whole entry partner): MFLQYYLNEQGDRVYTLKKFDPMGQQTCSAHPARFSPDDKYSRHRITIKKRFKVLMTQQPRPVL
T2 sequence (Q9NX24 whole entry partner): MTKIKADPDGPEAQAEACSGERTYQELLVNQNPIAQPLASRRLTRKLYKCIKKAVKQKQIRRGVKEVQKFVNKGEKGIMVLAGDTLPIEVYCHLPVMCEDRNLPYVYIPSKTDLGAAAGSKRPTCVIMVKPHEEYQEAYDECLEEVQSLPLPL
T2 sequence (Q9NY12 whole entry partner): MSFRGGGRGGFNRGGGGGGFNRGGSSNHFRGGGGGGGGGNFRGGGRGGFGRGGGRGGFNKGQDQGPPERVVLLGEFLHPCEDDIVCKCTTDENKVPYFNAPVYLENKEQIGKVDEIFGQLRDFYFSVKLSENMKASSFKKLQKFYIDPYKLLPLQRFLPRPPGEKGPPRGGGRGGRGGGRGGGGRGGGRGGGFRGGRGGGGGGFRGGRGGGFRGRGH
T1 sequence (O14746 whole entry): as the sequence (O14746 whole entry) above
T1 sequence (O60832 whole entry partner): as the sequence (O60832 whole entry partner) above
T1 sequence (Q9NPE3 whole entry partner): as the sequence (Q9NPE3 whole entry partner) above
T1 sequence (Q9NX24 whole entry partner): as the sequence (Q9NX24 whole entry partner) above
T1 sequence (Q9NY12 whole entry partner): as the sequence (Q9NY12 whole entry partner) above

SMILES: O=C1NC(=O)C(=Cc2cccc(Oc3ccccc3)c2)S1 [Compound 11]
- Residual Enzyme Activity (%) ([1]; concentration 100 μM): 50%

SMILES: O=C1NC(=O)C(=Cc2ccc(Oc3ccccc3)cc2)S1 [Compound 14]
- Residual Enzyme Activity (%) ([1]; concentration 100 μM): 47%
- IC50 [2]: 4 µM

SMILES: O=C1NC(=O)C(=Cc2cc([N+](=O)[O-])ccc2S(=O)(=O)C2CCCCC2)S1 [Compound 86]
- remaining activity at 10 µM [1, 3]: 44%
- IC50 [2]: 8 µM

SMILES: O=C1NC(=O)/C(=C/c2cc([N+](=O)[O-])ccc2[S+]([O-])c2ccc(Cl)cc2)S1 (centres unmarked) [Compound 68]
- remaining activity at 10 µM [1, 3]: 18%
- IC50 [2]: 2.7 µM

SMILES: Cc1ccc(COc2ccc([N+](=O)[O-])c(C=C3SC(=O)NC3=O)c2)cc1 [Compound 21]
- Residual Enzyme Activity (%) ([1]; concentration 30 μM): 35%
- IC50 [2]: 4.3 µM

SMILES: Cc1ccc([S+]([O-])c2ccc(C(F)(F)F)cc2C=C2SC(=O)NC2=O)cc1 (centres unmarked) [Compound 113]
- Residual Enzyme Activity (%) ([1]; concentration 30 μM): 37%
- residual activity of in vitro telomerase activity (in parenthesis) [2]: (68%)

SMILES: O=C1NC(=O)C(=Cc2cc([N+](=O)[O-])ccc2[S+]([O-])c2ccncc2)S1 (centres unmarked) [Compound 120]
- Residual Enzyme Activity (%) ([1]; concentration 10 μM): 40%
- IC50 [2]: 9.3 µM

SMILES: O=C1NC(=S)SC1=Cc1cc([N+](=O)[O-])ccc1Sc1ccc(Cl)cc1 [Compound 37]
- Residual Enzyme Activity (%) ([1]; concentration 30 μM): 39%
- IC50 [2]: 6 µM

SMILES: O=C1NC(=O)C(=Cc2cc(C(=O)c3ccc(Cl)cc3)c(S(=O)(=O)c3ccc(Cl)cc3)s2)S1 [Compound 66]
- Residual Enzyme Activity (%) ([1]; concentration 30 μM): 0%
- IC50 [2]: 3.7 µM

SMILES: CC(=O)Nc1ccc(Sc2ccc(C)cc2)c(C=C2SC(=O)NC2=O)c1 [Compound 3]
- Residual Enzyme Activity (%) ([1]; concentration 100 μM): 0%

SMILES: Cc1ccc(S(=O)(=O)c2ccc([N+](=O)[O-])cc2C=C2SC(=O)NC2=O)cc1 [Compound 5]
- Residual Enzyme Activity (%) ([1]; concentration 10 μM): 16%
- IC50 [2]: 23 µM

SMILES: Cc1ccc([S+]([O-])c2ccc(C=C3SC(=O)NC3=O)cc2Br)cc1 (centres unmarked) [Compound 143]
- Residual Enzyme Activity (%) ([1]; concentration 30 μM): 36%
- residual activity of in vitro telomerase activity (in parenthesis) [2]: (62%)

SMILES: O=C1NC(=O)/C(=C/c2cc([N+](=O)[O-])ccc2[S+]([O-])c2ccc(Cl)c(Cl)c2)S1 (centres unmarked) [Compound 135]
- remaining activity at 3 µM ([1]; concentration 3 μM, read-out: Residual Enzyme Activity (%)): 14%
- IC50 [2]: 4.5 µM

SMILES: Cc1ccc([S+]([O-])c2ccc(C=C3SC(=O)NC3=O)cc2[N+](=O)[O-])cc1 (centres unmarked) [Compound 82]
- Residual Enzyme Activity (%) ([1]; concentration 3 μM): 23%
- residual activity of in vitro telomerase activity (in parenthesis) [2]: (51%)

SMILES: Cc1ccc(Sc2ccc(-c3cccs3)cc2C=C2SC(=O)NC2=O)cc1 [Compound 92]
- remaining activity at 30 µM [1, 4]: 41%
- IC50 [2]: 5.6 µM

SMILES: Cc1ccc(Oc2cccc(C=C3SC(=O)NC3=O)c2)cc1 [Compound 12]
- Residual Enzyme Activity (%) ([1]; concentration 100 μM): 26%
- IC50 [2]: 5.8 µM

SMILES: Cc1ccc(Sc2ccc([N+](=O)[O-])cc2C=C2SC(=S)NC2=O)cc1 [Compound 38]
- Residual Enzyme Activity (%) ([1]; concentration 30 μM): 36%

SMILES: O=C1NC(=O)C(=Cc2cc([N+](=O)[O-])ccc2OCc2ccccc2)S1 [Compound 16]
- Residual Enzyme Activity (%) ([1]; concentration 100 μM): 0%
- IC50 [2]: 26 µM

SMILES: CN1CCN(C(=O)c2cc(C=C3SC(=O)NC3=O)c(Sc3ccc(Cl)cc3)s2)CC1 [Compound 56]
- remaining activity at 30 µM [1, 4]: 26%
- IC50 [2]: 7.9 µM

SMILES: Cc1ccc([S+]([O-])c2ccc(C=C3SC(=O)NC3=O)cc2Cl)cc1 (centres unmarked) [Compound 141]
- Residual Enzyme Activity (%) ([1]; concentration 30 μM): 26%
- residual activity of in vitro telomerase activity (in parenthesis) [2]: (64%)

SMILES: O=C1NC(=O)C(=Cc2cc(C(=O)N3CCOCC3)sc2Sc2ccc(Cl)cc2)S1 [Compound 57]
- remaining activity at 30 µM [1, 4]: 24%
- IC50 [2]: 54 µM

SMILES: CCN(CC)C(=O)c1cc(C=C2SC(=O)NC2=O)c(Sc2ccc(Cl)cc2)s1 [Compound 54]
- remaining activity at 30 µM [1, 4]: 50%
- IC50 [2]: 7.4 µM

SMILES: O=C1NC(=O)C(=Cc2cc([N+](=O)[O-])ccc2S(=O)(=O)c2ccc(Cl)cc2)S1 [Compound 69]
- remaining activity at 10 µM [1, 3]: 16%
- IC50 [2]: 0.48 µM

SMILES: CC(=O)c1ccc(Sc2ccc(C)cc2)c(C=C2SC(=O)NC2=O)c1 [Compound 97]
- remaining activity at 30 µM [1, 4]: 41%
- IC50 [2]: 5.6 µM

SMILES: CCc1ccc([S+]([O-])c2ccc([N+](=O)[O-])cc2/C=C2\SC(=O)NC2=O)cc1 (centres unmarked) [Compound 133]
- remaining activity at 10 µM [1, 3]: 11%
- IC50 [2]: 9.1 µM

SMILES: O=C1NC(=O)C(=Cc2cc([N+](=O)[O-])ccc2[S+]([O-])c2cccc(Cl)c2)S1 (centres unmarked) [Compound 134]
- Residual Enzyme Activity (%) ([1]; concentration 10 μM): 4%
- residual activity of in vitro telomerase activity (in parenthesis) [2]: (59%)

SMILES: Cc1ccc(Sc2ccc(-c3ccccn3)cc2C=C2SC(=O)NC2=O)cc1 [Compound 89]
- Residual Enzyme Activity (%) ([1]; concentration 30 μM): 2%
- residual activity of in vitro telomerase activity (in parenthesis) [2]: (56%)

SMILES: O=C1NC(=O)C(=Cc2cc([N+](=O)[O-])ccc2SCc2ccccc2)S1 [Compound 76]
- IC50 [2]: 3.9 µM

SMILES: Cc1ccc([S+]([O-])c2ccc([N+](=O)[O-])cc2C=C2SC(=O)NC2=O)cc1 (centres unmarked) [Compound 4]
- Residual Enzyme Activity (%) ([1]; concentration 10 μM): 16%
- IC50 [2]: 30 µM

SMILES: Cc1ccc(Sc2ccc([N+](=O)[O-])cc2C=C2SC(=O)NC2=O)cc1 [Compound 1]
- Residual Enzyme Activity (%) ([1]; concentration 30 μM): 11%
- IC50 [2]: 21 µM

SMILES: COc1ccc(Sc2ccc(C)cc2)c(C=C2SC(=O)NC2=O)c1 [Compound 104]
- residual activity of in vitro telomerase activity (in parenthesis) [2]: (61%)

SMILES: Cc1ccc(S(=O)(=O)c2ccc(C=C3SC(=O)NC3=O)cc2[N+](=O)[O-])cc1 [Compound 83]
- Residual Enzyme Activity (%) ([1]; concentration 10 μM): 32%
- residual activity of in vitro telomerase activity (in parenthesis) [2]: (58%)

SMILES: CCc1ccc(CCOc2ccc(CC3SC(=O)NC3=O)cc2)nc1 (centres unmarked) [Pioglitazone, pioglitazone, reference compound]
- IC50 [2]: 83 µM

SMILES: O=C1NC(=O)C(=Cc2cc([N+](=O)[O-])ccc2N2CCCCC2)S1 [Compound 124]
- residual activity of in vitro telomerase activity (in parenthesis) [2]: (54%)

SMILES: O=C1NC(=O)C(=Cc2cc([N+](=O)[O-])ccc2Sc2ccc(Cl)cc2)S1 [Compound 67]
- IC50 [2]: 1 µM

SMILES: Cc1ccc(COc2ccccc2C=C2SC(=O)NC2=O)cc1 [Compound 22]
- Residual Enzyme Activity (%) ([1]; concentration 100 μM): 33%

SMILES: O=C1NC(=O)C(=Cc2cc([N+](=O)[O-])ccc2S(=O)(=O)Cc2ccccc2)S1 [Compound 78]
- remaining activity at 10 µM [1, 3]: 25%
- IC50 [2]: 5.5 µM

SMILES: O=C1NC(=O)C(=Cc2cc([N+](=O)[O-])ccc2Sc2ccc(Cl)c(Cl)c2)S1 [Compound 72]
- IC50 [2]: 4.3 µM

SMILES: O=C1NC(=O)C(=Cc2ccc(N(c3ccc(CO)cc3)c3ccc(CO)cc3)cc2)S1 [Compound 49]
- IC50 [2]: 4.4 µM

SMILES: CCCN(CCC)c1ccc([N+](=O)[O-])cc1C=C1SC(=O)NC1=O [Compound 123]
- IC50 [2]: 6.9 µM
